Assay results: publication PMC4788259 (PLoS Neglected Tropical Diseases, 2016)

Test system: E. multilocularis metacestodes
Assay: PGI assay: phosphoglucose isomerase release from damaged metacestodes
Assay type: cell-based, Echinococcus multilocularis
Conditions: 10 μM, 5 days, single wells, relative to DB1127 (10 μM)
Experimental: The preparation of E. multilocularis metacestode material (strain H95) from intraperitoneally (i.p.) infected BALB/c mice was performed as described earlier. Metacestode vesicles were used for in vitro drug screening when they reached 2 to 4 mm in diameter.
For screening of the Malaria Box against E. multilocularis metacestodes, the PGI screening assay was applied that measures the release of the enzyme phosphoglucose isomerase (PGI) upon physical impairment of metacestodes. The screening setup was done in 24 well plates as described by Stadelmann et al. For initial screening, each drug was applied at 10 μM to metacestodes in single wells. As a positive control-drug, the dicationic diguanidino compound DB1127 (10 μM) was used and 0.1% DMSO was added as negative control. Metacestodes were cultured in the presence of the compounds for 5 days, after which PGI release was quantified exactly as stated in Stadelmann et al. […] Averages, standard deviations and EC50 values were calculated in Microsoft Excel 2010.

Point of comparison: `Cc1cc(Nc2ccc3ccccc3c2)n2ncnc2n1` [MMV011099], “PGI (% of DB1127 at 10 uM)” value -50.58%. Against it:
- CCOc1ccc(Nc2c3ccccc3nc3ccccc23)cc1.Cl [MMV000304] — higher, 38.31%
- Cc1ccc(Nc2nc(N)c3ccccc3n2)cc1Cl [MMV011522] — higher, 12.79%
- CCC(c1ccccc1)c1nn2c(-c3cccs3)nnc2s1 (stereo not drawn) [MMV665876] — higher, -39.84%
- Cc1cc(C)c2c(c1)OCN(Cc1ccccc1Cl)C2 [MMV006558] — higher, -21.27%
- CN(C)c1ccc(C=Cc2nc(=O)c3ccccc3o2)cc1 [MMV006309] — higher, 24.63%
- CC1CC2=C(CC1CNCCCN(C)C)C(C)(C)CCC2 (stereo not drawn) [MMV665830] — higher, -3.36%
- Cc1sc(NC(=O)c2ccco2)c(C(c2cccnc2)N2CCC(Cc3ccccc3)CC2)c1C (stereo not drawn) [MMV396663] — higher, -1.97%
- Cc1ccc(CSCc2ccc(C(=O)NC3CC3)o2)cc1 [MMV007571] — higher, -9.42%
- Cl.Cn1c(=O)n(C)c2cc(CNCCNc3ccnc4cc(Cl)ccc34)ccc21 [MMV665875] — higher, 7.55%
- CCOC(=O)C1=C(C)N=c2sc(=Cc3ccccc3O)c(=O)n2C1c1ccc(OC)c2ccccc12 (stereo not drawn) [MMV666604] — higher, -9.67%
- COc1ccc(-c2nc3cc(Cc4ccc5[nH]c(-c6ccc(OC)cc6)nc5c4)ccc3[nH]2)cc1 [MMV007384] — higher, 61.95%
- COCCn1c(C)nc2ccccc2c1=O [MMV665904] — higher, -26.17%
- CCCN(CCC)CC(O)COc1ccccc1C(=O)Nc1ccccc1 (stereo not drawn) [MMV006455] — higher, -26.39%
- CCCCCn1c(=N)n(CC(O)COc2cccc(C)c2)c2ccccc21.Cl (stereo not drawn) [MMV000444] — higher, 66.85%
- COc1cccc(O)c1CN1CCC2(CCCN(Cc3ccc(F)cc3)C2)C1 (stereo not drawn) [MMV666061] — higher, -20.69%
- O=C(NCc1ccco1)C1CCN(S(=O)(=O)c2ccc(Cl)cc2)CC1 [MMV006188] — higher, -16.08%
- COc1ccc(-c2cc3c(SCC(=O)Nc4cc(C(F)(F)F)ccc4Cl)nccn3n2)cc1 [MMV396679] — lower, -59.06%
- CCc1ccc(Nc2cc(C)nc3nc(C)nn23)cc1 [MMV007374] — higher, 12.73%
- COc1cccc(NC(=O)[C@H](C(C)C)n2c(=O)[nH]c3ccccc3c2=O)c1 [MMV665878] — lower, -74.00%
- CCCc1cc(O)c2c3c(c(=O)oc2c1)CN(C)CC3 [MMV665841] — higher, -34.14%
- COc1ccc2c(=O)cc(C(Cl)(Cl)Cl)oc2c1 [MMV665820] — higher, -22.08%
- COCCNCC(O)Cn1c2ccc(Cl)cc2c2cc(Cl)ccc21 (stereo not drawn) [MMV019017] — higher, 20.81%
- CCOC(=O)c1cnc2ccc(Cl)cc2c1NCCCN(C)C [MMV006882] — higher, 9.75%
- O=C(CCc1ccccc1)c1ccccc1OCC(O)CN1CCCCC1 (stereo not drawn) [MMV009015] — higher, 4.79%
- CCOc1ccc(/C=C/c2nc(=O)c3ccccc3o2)cc1 [MMV665940] — lower, -92.49%
- CC1=C(CC(=O)c2cccc([N+](=O)[O-])c2)C(=O)c2ccccc2C1=O [MMV666125] — higher, -2.81%
- CCOc1cc(Cl)c(C(C)NC(=O)c2cccc(OC)c2)cc1OCC (stereo not drawn) [MMV665803] — higher, -50.18%
- CCN(Cc1ccccc1)C1CCN(Cc2cc(Br)ccc2O)CC1.O=C(O)C(=O)O [MMV019127] — higher, -5.90%
- CCOc1cc2c(cc1OCC)C(c1cc(C)c(O)c(C)c1)NCC2.Cl (stereo not drawn) [MMV000483] — higher, -22.26%
- O=C(Cc1ccccc1)NC(c1ccc(Cl)cc1)c1c(O)ccc2ccccc12 (stereo not drawn) [MMV665972] — higher, 15.67%
- COc1ccccc1CNC(=O)CCn1c(=O)[nH]c2ccsc2c1=O [MMV019066] — higher, -44.92%
- CC1CN(C(=O)c2sc3ccccc3c2Cl)CC(C)O1 (stereo not drawn) [MMV020492] — higher, -44.30%
- COc1ccc(C(=O)NC(c2ccccc2Cl)c2cc(Cl)c3cccnc3c2O)cc1 (stereo not drawn) [MMV666022] — higher, 259.47%
- Oc1ccc2ccccc2c1CNc1nc2ccccc2[nH]1 [MMV011832] — higher, 34.82%
- CN(C)CCNc1cc(-c2ccccc2)nc2ccccc12 [MMV006704] — higher, -13.50%
- CC1CCCCN1CCCNC(=O)c1ccc2c(c1)sc1nc(-c3ccc(F)cc3)cn12 (stereo not drawn) [MMV000634] — lower, -120.82%
- COc1cc(SC)ccc1C(=O)N1CCCC(C)C1 (stereo not drawn) [MMV056726] — higher, 16.15%
- Clc1ccc2[nH]c3c(NCCCN4CCOCC4)ncnc3c2c1 [MMV006587] — higher, -6.35%
- CCn1c(CN2CCN(Cc3ccccc3)CC2)nc2cc(NC(=O)c3cccs3)ccc21 [MMV020439] — higher, -13.64%
- CCOc1cc2c(cc1OCC)C(c1cc(Cl)ccc1O)NCC2 (stereo not drawn) [MMV000478] — higher, 32.45%
- COc1ccc(Nc2cc(C)nc(NCc3ccccc3)n2)cc1 [MMV006825] — higher, 17.48%
- CCOc1ccc(-c2nc(NC(=O)c3cccc(S(C)(=O)=O)c3)sc2C)cc1 [MMV665913] — higher, -25.30%
- Oc1ccc(Br)cc1CN1CCN(Cc2ccc(Cl)cc2)CC1 [MMV665809] — higher, -23.13%
- CCOc1ccccc1CNC(=O)C1c2ccccc2C(=O)N(CC(C)C)C1c1cccs1 (stereo not drawn) [MMV000653] — lower, -120.29%
- COc1ccc(C2c3ccc4ccccc4c3Oc3ncn(CCCn4ccnc4)c(=N)c32)cc1OC (stereo not drawn) [MMV667490] — higher, -1.19%
- COc1ccc(C=C2SC(=N)N(c3ccccc3OC)C2=O)cc1 [MMV666691] — higher, -41.85%
- CCOC(=O)C1CCN(C(=O)CN2C(=O)c3ccccc3C2c2c[nH]c3ccccc23)CC1 (stereo not drawn) [MMV011576] — higher, -33.19%
- CCOC(=O)c1cnc2c(C)cc(C)cc2c1Nc1ccc(OC)c(OC)c1 [MMV008294] — higher, -43.41%
- CCOC(=O)c1c[nH]c2ccc(CC)cc2c1=O [MMV007116] — higher, 80.46%
- Br.CCN(CC)S(=O)(=O)c1ccc(-c2csc(Nc3ccc(C)c(C)c3)n2)cc1 [MMV009108] — higher, 14.04%
- O=C(NC1CCN(Cc2ccccc2)CC1)c1cc(C(=O)NC2CCN(Cc3ccccc3)CC2)cc(C(=O)NC2CCN(Cc3ccccc3)CC2)c1 [MMV019881] — higher, 9.54%
- O=c1cc(NC2CCN(CCCc3ccccc3)CC2)c2cc(Cl)ccc2o1 [MMV665786] — higher, -0.88%
- CCN(CC)CCCNc1nc(-c2ccc(Cl)cc2)nc2ccccc12 [MMV665961] — higher, -34.32%
- CCOc1ccc(CN2CCN(CC(O)COc3ccc(OCC(O)CN4CCN(Cc5ccc(OCC)cc5)CC4)cc3)CC2)cc1 (stereo not drawn) [MMV007092] — higher, -3.58%
- COc1ccc(-c2cc(=O)oc3c4c(ccc23)OCN(Cc2ccc(F)cc2)C4)cc1 [MMV000604] — higher, 3.81%
- CC(=O)c1ccc(NC(=O)CSc2nc(-c3ccccc3Cl)ns2)cc1 [MMV666124] — higher, -5.85%
- CC(C)OCc1cc(CN2CCN(c3cccc(Cl)c3)CC2)c(O)c2ncccc12 [MMV000788] — higher, -14.40%
- COCCN(C(=O)Cc1cccs1)C(C(=O)NCc1ccc(OC)cc1)c1ccc(C(C)C)cc1 (stereo not drawn) [MMV666105] — lower, -124.48%
- COc1ccc(-c2cn3c(C(=O)Nc4ccccc4Cl)c(-c4ccccc4)c4c3n2CCCC4)cc1 [MMV020403] — higher, 8.35%
- CN1C=C(c2ccc3ccccc3n2)C(c2c[nH]c3ccccc23)c2ccccc21 (stereo not drawn) [MMV008160] — higher, -2.32%
- Cc1ccccc1OCCSc1nc2ccc(NC(=O)c3cccs3)cc2s1 [MMV007396] — higher, -6.56%
- COc1ccc(-c2nonc2NC(=O)c2cccc(Cl)c2)cc1OC [MMV020660] — higher, -20.61%
- CCCCNCC(O)(c1ccc(Cl)cc1)c1ccc(Cl)cc1 [MMV665929] — higher, -0.59%
- O=C(Nc1ccc(F)c(Cl)c1)Nc1ccc(Cl)c(Cl)c1 [MMV665953] — higher, 213.83%
- CC1CC(C)CN(C(=O)c2ccc(Cl)cc2Cl)C1 (stereo not drawn) [MMV001344] — higher, -22.37%
- CCN1CCN(c2c(C(=O)c3ccccc3)cnc3cc(OC)c(OC)cc23)CC1 [MMV008474] — higher, -15.22%
- CCCCCCc1cc2cc(-c3nc4ccccc4[nH]3)c(=Nc3ccccc3C)oc2cc1O [MMV666597] — higher, -1.88%
- CCOc1cccc(C(=O)Nc2ccc(-c3nc4ccccc4[nH]3)cc2)c1 [MMV019202] — higher, -27.17%
- COc1cc2c(cc1OC)C1=NNC(=O)C1=NC(C)(C)C2 [MMV084940] — higher, -19.88%
- C[n+]1c2ccccc2nc2ccc(NCCO)cc21 [MMV396693] — higher, -18.69%
- CC(=O)NCCc1nc2ccccc2n1Cc1ccc(C(C)C)cc1 [MMV007617] — higher, -2.63%
- COc1ccc2c(c1OC)C(=O)N1c3ccccc3N=C(c3ccc(C)cc3)CC21 (stereo not drawn) [MMV000917] — higher, -0.60%
- COc1cc(OC)c(N(C)C(=O)c2cc3c(s2)-c2ccccc2S(=O)(=O)C3)cc1Cl [MMV006427] — higher, -47.62%
- COc1ccc(-n2ccnc2SCC(=O)Nc2cc(C)ccc2C)c(OC)c1 [MMV019258] — higher, -33.26%
- N#Cc1nc(Cc2cccc3ccccc23)oc1N1CCN(C(c2ccccc2)c2ccccc2)CC1 [MMV396726] — higher, -6.81%
- CN1CCN(c2ncnc3c2[nH]c2ccc(Cl)cc23)CC1 [MMV396704] — higher, -24.85%
- Cc1ccc(C2CC(C(F)(F)F)n3nc(C(=O)N4CCN(C(c5ccccc5)c5ccccc5)CC4)cc3N2)cc1 (stereo not drawn) [MMV000699] — higher, -1.50%
